Common to all, as to type: ADME
Series [1] has as its system Liver microsome. Nature of the series: Drug metabolism in human liver microsomes assessed as (3R,3aS,4S,4aR,7R,8aR,9aR)-7-amino-4-((E)-2-(5-(3-fluorophenyl)pyridin-2-yl)vinyl)-3-methyldecahydronaphtho[2,3-c]furan-1(3H)-one formation at 10 to 25 uM after 120 mins by LC-MS/MS analysis in presence of orphenadrine. The settings on record: 2 h. Background: Liver microsomes are vesicles of endoplasmic reticulum, rich in cytochrome P450 enzymes.

The next series addresses CYP3A4 (Homo sapiens, UniProt P08684). Nature of the series: Activity of human recombinant CYP3A4 assessed as enzyme-mediated drug metabolism at 10 uM after 120 mins by LC-MS/MS analysis in presence of NADPH. The settings on record: read-out: Compound recovery.
Series [2] deals with Liver microsome. Nature of the series: Drug metabolism in human liver microsomes overexpressing CYP3A4 assessed as (3R,3aS,4S,4aR,7R,8aR,9aR)-7-amino-4-((E)-2-(5-(3-fluorophenyl)pyridin-2-yl)vinyl)-3-methyldecahydronaphtho[2,3-c]furan-1(3H)-one formation at 25 uM after 120 mins by LC-MS/MS analysis in presence of ketoconazole. The settings on record: 2 h.
Series [3] has as its target T1, Cytochrome P450 3A5 (Homo sapiens, UniProt P20815). Nature of the series: Activity of human recombinant CYP3A5 assessed as enzyme-mediated drug metabolism treated with 25 uM vorapaxar after 120 mins by LC-MS/MS analysis in presence of NADPH. The settings on record: 2 h.
Series [4] has as its target T2, Cytochrome P450 1A1 (Homo sapiens, UniProt P04798).
T2 sequence (P04798 whole entry): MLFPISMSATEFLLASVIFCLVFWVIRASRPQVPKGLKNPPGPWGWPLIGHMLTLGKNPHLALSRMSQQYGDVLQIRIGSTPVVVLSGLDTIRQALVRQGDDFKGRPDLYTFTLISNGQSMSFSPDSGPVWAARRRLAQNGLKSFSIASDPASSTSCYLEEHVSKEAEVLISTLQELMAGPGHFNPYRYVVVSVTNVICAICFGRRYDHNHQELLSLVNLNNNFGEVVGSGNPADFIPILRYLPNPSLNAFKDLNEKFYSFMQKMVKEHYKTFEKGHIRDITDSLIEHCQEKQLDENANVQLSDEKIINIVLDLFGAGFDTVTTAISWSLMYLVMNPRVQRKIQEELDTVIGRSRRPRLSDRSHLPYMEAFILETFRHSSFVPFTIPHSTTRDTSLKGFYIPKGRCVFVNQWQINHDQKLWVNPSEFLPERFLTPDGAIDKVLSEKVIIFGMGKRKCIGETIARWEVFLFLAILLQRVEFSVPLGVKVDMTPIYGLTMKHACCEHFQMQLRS
Nature of the series: Activity of human recombinant CYP1A1 assessed as enzyme-mediated drug metabolism treated with 25 uM vorapaxar after 120 mins by LC-MS/MS analysis in presence of NADPH. The settings on record: 2 h.

The next series deals with Cytochrome P450 2C19 (Homo sapiens, UniProt P33261). Nature of the series: Activity of human recombinant CYP2C19 assessed as enzyme-mediated drug metabolism treated with 25 uM vorapaxar after 120 mins by LC-MS/MS analysis in presence of NADPH. The settings on record: 2 h.
For series [5], the target named is T3, Cytochrome P450 4F3 (Homo sapiens, UniProt Q08477).
T3 sequence (Q08477 whole entry): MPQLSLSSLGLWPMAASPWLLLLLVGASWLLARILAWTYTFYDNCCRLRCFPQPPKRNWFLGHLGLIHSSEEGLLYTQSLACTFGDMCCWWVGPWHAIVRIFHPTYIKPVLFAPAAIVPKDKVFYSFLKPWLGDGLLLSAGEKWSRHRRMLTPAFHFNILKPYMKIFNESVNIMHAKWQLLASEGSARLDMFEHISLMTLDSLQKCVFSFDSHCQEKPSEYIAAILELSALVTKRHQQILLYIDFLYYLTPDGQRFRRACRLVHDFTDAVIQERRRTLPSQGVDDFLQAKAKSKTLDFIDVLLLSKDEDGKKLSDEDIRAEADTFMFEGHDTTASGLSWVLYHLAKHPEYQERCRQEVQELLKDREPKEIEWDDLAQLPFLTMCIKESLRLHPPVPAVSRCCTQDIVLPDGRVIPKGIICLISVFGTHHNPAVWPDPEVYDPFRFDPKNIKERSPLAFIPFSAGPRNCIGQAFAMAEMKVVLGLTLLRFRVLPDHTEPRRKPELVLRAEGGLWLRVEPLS
Nature of the series: Activity of human recombinant CYP4F3B assessed as enzyme-mediated drug metabolism treated with 25 uM vorapaxar after 120 mins by LC-MS/MS analysis in presence of NADPH. Conditions: 2 h.

Another series has as its target Cytochrome P450 2C9 (Homo sapiens, UniProt P11712). Nature of the series: Activity of human recombinant CYP2C9 assessed as enzyme-mediated 2-hydroxyethyl (1R,3aR,4aR,6R,8aR,9S,9aS)-9-((E)-2-(5-(3-fluorophenyl)pyridin-2-yl)vinyl)-1-methyl-3-oxododecahydronaphtho[2,3-c]furan-6-ylcarbamate formation at 25 uM after 120 mins by LC-MS/MS analysis in presence of NADPH. Conditions: 2 h.

For series [6], the target named is T3, Cytochrome P450 4F3. Nature of the series: Activity of human recombinant CYP4F3A assessed as enzyme-mediated 2-hydroxyethyl (1R,3aR,4aR,6R,8aR,9S,9aS)-9-((E)-2-(5-(3-fluorophenyl)pyridin-2-yl)vinyl)-1-methyl-3-oxododecahydronaphtho[2,3-c]furan-6-ylcarbamate formation at 25 uM after 120 mins by LC-MS/MS analysis in presence of NADPH. The settings on record: 2 h.

Another series has as its target Cytochrome P450 4F2 (Homo sapiens, UniProt P78329). Nature of the series: Activity of human recombinant CYP4F2 assessed as enzyme-mediated 2-hydroxyethyl (1R,3aR,4aR,6R,8aR,9S,9aS)-9-((E)-2-(5-(3-fluorophenyl)pyridin-2-yl)vinyl)-1-methyl-3-oxododecahydronaphtho[2,3-c]furan-6-ylcarbamate formation at 25 uM after 120 mins by LC-MS/MS analysis in presence of NADPH. Conditions: 2 h.

Series [7] concerns Liver microsome. Nature of the series: Drug metabolism in human liver microsomes assessed as (3R,3aS,4S,4aR,7R,8aR,9aR)-7-amino-4-((E)-2-(5-(3-fluorophenyl)pyridin-2-yl)vinyl)-3-methyldecahydronaphtho[2,3-c]furan-1(3H)-one formation per nmol of enzyme at 25 uM after 120 mins by LC-MS/MS analysis. The settings on record: 2 h.
Series [8] has as its target T1, Cytochrome P450 3A5. Nature of the series: Activity of human recombinant CYP3A5 assessed as enzyme-mediated 2-hydroxyethyl (1R,3aR,4aR,6R,8aR,9S,9aS)-9-((E)-2-(5-(3-fluorophenyl)pyridin-2-yl)vinyl)-1-methyl-3-oxododecahydronaphtho[2,3-c]furan-6-ylcarbamate formation at 25 uM after 120 mins by LC-MS/MS analysis in presence of NADPH. The settings on record: 2 h.
Series [9] deals with Liver microsome. Nature of the series: Intrinsic clearance in human liver microsomes assessed as (3R,3aS,4S,4aR,7R,8aR,9aR)-7-amino-4-((E)-2-(5-(3-fluorophenyl)pyridin-2-yl)vinyl)-3-methyldecahydronaphtho[2,3-c]furan-1(3H)-one formation by measuring Vmax/Km per nmol of enzyme after 120 mins by LC-MS/MS analysis. Conditions: 2 h.
The target in series [10] is T2, Cytochrome P450 1A1. Nature of the series: Activity of human recombinant CYP1A1 assessed as enzyme-mediated (3R,3aS,4S,4aR,7R,8aR,9aR)-7-amino-4-((E)-2-(5-(3-fluorophenyl)pyridin-2-yl)vinyl)-3-methyldecahydronaphtho[2,3-c]furan-1(3H)-one formation at 25 uM after 120 mins by LC-MS/MS analysis in presence of NADPH. Conditions: 2 h.

T1 sequence (P20815 whole entry): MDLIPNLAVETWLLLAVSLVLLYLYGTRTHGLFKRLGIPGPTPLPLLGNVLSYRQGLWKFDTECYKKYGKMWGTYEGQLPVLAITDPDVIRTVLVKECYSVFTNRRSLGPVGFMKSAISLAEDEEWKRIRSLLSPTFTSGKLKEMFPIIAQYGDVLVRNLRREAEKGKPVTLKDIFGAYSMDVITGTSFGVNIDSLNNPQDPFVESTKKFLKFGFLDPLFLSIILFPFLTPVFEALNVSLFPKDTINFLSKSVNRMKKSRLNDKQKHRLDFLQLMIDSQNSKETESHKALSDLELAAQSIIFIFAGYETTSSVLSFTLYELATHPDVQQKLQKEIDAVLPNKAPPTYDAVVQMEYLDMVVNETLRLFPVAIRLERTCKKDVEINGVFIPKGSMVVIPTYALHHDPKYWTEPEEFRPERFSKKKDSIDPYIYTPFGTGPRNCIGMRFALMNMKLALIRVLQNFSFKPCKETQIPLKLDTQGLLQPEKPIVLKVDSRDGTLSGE
Sequence of CYP3A4 (P08684 whole entry): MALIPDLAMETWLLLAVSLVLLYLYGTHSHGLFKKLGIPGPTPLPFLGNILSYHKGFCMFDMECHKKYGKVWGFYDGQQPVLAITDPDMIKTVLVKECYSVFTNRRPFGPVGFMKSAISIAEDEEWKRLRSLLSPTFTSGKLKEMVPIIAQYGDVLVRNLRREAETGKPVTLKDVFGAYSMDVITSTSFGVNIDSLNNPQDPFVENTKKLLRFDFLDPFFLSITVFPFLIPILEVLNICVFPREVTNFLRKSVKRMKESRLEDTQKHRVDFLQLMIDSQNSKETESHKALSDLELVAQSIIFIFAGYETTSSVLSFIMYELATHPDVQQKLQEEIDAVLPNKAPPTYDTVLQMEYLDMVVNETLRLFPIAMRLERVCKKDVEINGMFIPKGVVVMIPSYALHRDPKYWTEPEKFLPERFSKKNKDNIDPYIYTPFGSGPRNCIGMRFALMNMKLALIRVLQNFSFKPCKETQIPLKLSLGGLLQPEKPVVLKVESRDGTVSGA
Sequence of Cytochrome P450 4F2 (P78329 whole entry): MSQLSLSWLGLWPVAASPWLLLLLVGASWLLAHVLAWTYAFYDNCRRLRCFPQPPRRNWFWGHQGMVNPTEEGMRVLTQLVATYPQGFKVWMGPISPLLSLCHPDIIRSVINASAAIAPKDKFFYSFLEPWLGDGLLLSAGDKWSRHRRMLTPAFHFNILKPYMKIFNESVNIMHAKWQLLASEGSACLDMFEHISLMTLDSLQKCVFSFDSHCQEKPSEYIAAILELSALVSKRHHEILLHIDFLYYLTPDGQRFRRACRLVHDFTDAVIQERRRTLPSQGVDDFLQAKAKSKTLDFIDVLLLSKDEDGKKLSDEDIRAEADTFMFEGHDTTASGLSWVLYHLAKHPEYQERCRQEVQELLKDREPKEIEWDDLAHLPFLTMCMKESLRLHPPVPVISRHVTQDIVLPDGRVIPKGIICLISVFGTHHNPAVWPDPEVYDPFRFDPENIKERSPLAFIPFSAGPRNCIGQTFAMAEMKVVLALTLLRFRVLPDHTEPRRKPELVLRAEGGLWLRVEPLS
Sequence of Cytochrome P450 2C19 (P33261 whole entry): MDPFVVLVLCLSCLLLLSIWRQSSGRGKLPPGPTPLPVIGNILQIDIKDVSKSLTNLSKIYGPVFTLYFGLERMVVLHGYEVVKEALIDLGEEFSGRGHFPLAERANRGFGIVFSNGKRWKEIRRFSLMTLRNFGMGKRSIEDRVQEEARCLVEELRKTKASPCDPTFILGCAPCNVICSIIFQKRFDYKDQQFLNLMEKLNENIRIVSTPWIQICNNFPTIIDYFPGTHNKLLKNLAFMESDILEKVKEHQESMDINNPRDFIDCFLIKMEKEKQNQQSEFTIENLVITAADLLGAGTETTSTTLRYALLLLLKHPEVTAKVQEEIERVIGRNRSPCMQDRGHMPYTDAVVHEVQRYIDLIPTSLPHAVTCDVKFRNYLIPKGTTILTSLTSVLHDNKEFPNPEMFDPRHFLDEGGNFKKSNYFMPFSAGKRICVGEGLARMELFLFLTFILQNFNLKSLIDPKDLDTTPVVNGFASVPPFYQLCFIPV
Sequence of Cytochrome P450 2C9 (P11712 whole entry): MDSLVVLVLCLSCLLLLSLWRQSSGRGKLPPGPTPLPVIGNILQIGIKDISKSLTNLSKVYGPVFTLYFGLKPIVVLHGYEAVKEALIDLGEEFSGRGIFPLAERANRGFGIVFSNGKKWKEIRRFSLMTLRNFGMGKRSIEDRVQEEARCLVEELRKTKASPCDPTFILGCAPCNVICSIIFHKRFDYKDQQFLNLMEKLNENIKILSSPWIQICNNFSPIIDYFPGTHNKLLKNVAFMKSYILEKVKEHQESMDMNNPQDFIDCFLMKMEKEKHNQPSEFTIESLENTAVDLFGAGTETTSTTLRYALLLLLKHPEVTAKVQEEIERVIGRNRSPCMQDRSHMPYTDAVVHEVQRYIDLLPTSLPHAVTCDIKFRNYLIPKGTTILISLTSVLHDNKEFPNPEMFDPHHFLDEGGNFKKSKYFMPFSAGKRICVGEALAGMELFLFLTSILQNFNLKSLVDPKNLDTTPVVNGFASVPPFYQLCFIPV

In the case of `CCOC(=O)N[C@@H]1CC[C@@H]2[C@@H](C1)C[C@H]1C(=O)O[C@H](C)[C@H]1[C@H]2/C=C/c1ccc(-c2cccc(F)c2)cn1` [VORAPAXAR], the Drug metabolism result in the series on Liver microsome [1] and in the series with Liver microsome [2] was “metabolite_not_detected” in each case. For the same compound, the remaining at 2 h, 10 µM at CYP3A4 was found to be 72.5%.

For the compound `C[C@H]1OC(=O)[C@@H]2C[C@@H]3C[C@H](NC(=O)OCCO)CC[C@H]3[C@H](/C=C/c3ccc(-c4cccc(F)c4)cn3)[C@H]12`, the Drug metabolism result on Cytochrome P450 3A5 [3], at Cytochrome P450 1A1 [4], at Cytochrome P450 2C19 and on Cytochrome P450 4F3 [5] was “metabolite_detected” in each case.

With `CCOC(=O)N[C@@H]1CC[C@@H]2[C@@H](C1)C[C@H]1C(=O)O[C@H](C)[C@H]1[C@H]2/C=[14CH]/c1ccc(-c2cccc(F)c2)cn1`, the Drug metabolism result on Cytochrome P450 2C9, on Cytochrome P450 4F3 [6], on Cytochrome P450 4F2, on Cytochrome P450 3A5 [8] and on Cytochrome P450 1A1 [10] was “metabolite_detected” throughout. Besides, the Vmax in the series with Liver microsome [7] is reported as 30 pmol/min. In addition, the CLH with Liver microsome [9] is 2.46 µL/min.

What is called Vmax is the rate approached at saturating substrate.

The values are drawn from ChEMBL document CHEMBL3526033, “Identification of human liver cytochrome P450 enzymes involved in the metabolism of SCH 530348 (Vorapaxar), a potent oral thrombin protease-activated receptor 1 antagonist” (Drug Metab Dispos, 2011).
